Article PMC12797170, “Potent Competitive Inhibitors of Ecto-5′-nucleotidase (CD73) based on 6‑(Het)aryl-7-deazapurine Ribonucleoside 5′‑O‑Bisphosphonates” (ACS Pharmacology & Translational Science, 2025)
Like-named read-outs stand apart in the source and are kept apart here.

Assays:
[1] = In vivo pharmacokinetic study, intravenous; design: species or system male CD-1 mice; conditions: for half-life / clearance: plasma, 1 mg/kg; for half-life: footnote: t1/2 stability in plasma, text: half-life in mouse PK; for unbound plasma exposure relative to mouse CD73 Ki: mouse PK, unbound via mouse PPB, all time points
Summary of the method: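 Single intravenous dose in male CD-1 mice (n=3, 9 weeks, 29.2–33.7 g). Plasma levels measured by LC-MS/MS at 5, 15, 30, 60, 120, 240 and 480 min.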

[2] = Plasma protein binding, mouse plasma; format: in vitro ADME; conditions: mouse, plasma
CYP1A2 = molecular target: T1, CYP1A2 (Homo sapiens, UniProt P05177); test: In vitro CYP450 inhibition assay (Vivid); format: biochemical; conditions: probe fluorogenic Vivid CYP450 substrate (not named)
T1 construct: assay run by Bienta (Enamine Biology Services)
T1 sequence (P05177 2-516 limits assumed): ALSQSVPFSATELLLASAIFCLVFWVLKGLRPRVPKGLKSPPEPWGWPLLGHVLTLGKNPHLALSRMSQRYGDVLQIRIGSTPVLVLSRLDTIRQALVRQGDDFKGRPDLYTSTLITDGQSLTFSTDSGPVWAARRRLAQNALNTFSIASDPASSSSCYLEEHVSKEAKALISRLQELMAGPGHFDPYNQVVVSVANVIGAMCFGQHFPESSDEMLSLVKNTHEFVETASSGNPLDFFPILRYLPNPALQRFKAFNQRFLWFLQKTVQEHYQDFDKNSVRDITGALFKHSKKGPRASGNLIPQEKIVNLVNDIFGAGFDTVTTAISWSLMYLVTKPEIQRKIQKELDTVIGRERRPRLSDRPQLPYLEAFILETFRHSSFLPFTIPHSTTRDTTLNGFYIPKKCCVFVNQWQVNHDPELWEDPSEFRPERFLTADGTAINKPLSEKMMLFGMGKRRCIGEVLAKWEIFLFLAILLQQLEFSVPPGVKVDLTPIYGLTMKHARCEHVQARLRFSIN
Method: (§1) The study was performed by Bienta (Enamine Biology Services). The potential for CYP450 inhibition (isoforms 1A2, 2C9, 2C19, 2D6, and 3A4) was assessed by performing in vitro inhibition studies using fluorogenic CYP450 substrates with the corresponding CYP450 enzymes and NADPH regeneration system (Vivid CYP450 Screening Kits) with some minor changes to the manufacturer’s protocols. The fluorescent signal produced from the reaction is directly proportional to the cytochrome P450 activity. In the cases when tested compounds interfere with the CYP450 enzyme–substrate reaction, the fluorescent signal decreases.
(§2) Briefly, the tested compounds were first dissolved in DMSO at 100× concentration (1 mM) and diluted in buffer to 2.5× concentration (25 μM). […] After 10 min of preincubation, the enzymatic reaction was initiated by the addition of a mix of NADPH and the appropriate CYP450 substrates. The plate was incubated for the desired reaction time (25 min for CYP1A2, CYP2C9, CYP2D6, and CYP3A4; 60 min for CYP2C19) after which Stop Reagent was added and fluorescence measured using SpectraMax Paradigm Multi-Mode Microplate Reader. All test points were performed in quadruplicates at a concentration of 10 μM (1% DMSO).

CYP2C19 = molecular target: T2, CYP2C19 (Homo sapiens, UniProt P33261); test: In vitro CYP450 inhibition assay (Vivid); format: biochemical; conditions: probe fluorogenic Vivid CYP450 substrate (not named)
T2 construct: assay run by Bienta (Enamine Biology Services)
T2 sequence (P33261 whole entry): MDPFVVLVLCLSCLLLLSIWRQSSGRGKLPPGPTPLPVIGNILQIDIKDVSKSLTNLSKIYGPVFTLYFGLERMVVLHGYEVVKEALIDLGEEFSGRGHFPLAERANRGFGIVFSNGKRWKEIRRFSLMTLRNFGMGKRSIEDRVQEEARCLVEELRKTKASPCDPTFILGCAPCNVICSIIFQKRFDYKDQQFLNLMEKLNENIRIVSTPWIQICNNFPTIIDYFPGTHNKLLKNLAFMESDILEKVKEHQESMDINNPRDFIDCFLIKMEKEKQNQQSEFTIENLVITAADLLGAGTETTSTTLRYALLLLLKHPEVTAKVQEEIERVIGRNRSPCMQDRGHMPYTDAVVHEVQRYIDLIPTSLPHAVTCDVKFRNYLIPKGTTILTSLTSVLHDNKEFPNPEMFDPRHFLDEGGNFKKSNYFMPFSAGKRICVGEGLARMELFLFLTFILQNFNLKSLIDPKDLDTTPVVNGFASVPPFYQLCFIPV
Method: as §1, §2

CYP2C9 = molecular target: T3, CYP2C9 (Homo sapiens, UniProt P11712); test: In vitro CYP450 inhibition assay (Vivid); format: biochemical; conditions: probe fluorogenic Vivid CYP450 substrate (not named)
T3 construct: assay run by Bienta (Enamine Biology Services)
T3 sequence (P11712 whole entry): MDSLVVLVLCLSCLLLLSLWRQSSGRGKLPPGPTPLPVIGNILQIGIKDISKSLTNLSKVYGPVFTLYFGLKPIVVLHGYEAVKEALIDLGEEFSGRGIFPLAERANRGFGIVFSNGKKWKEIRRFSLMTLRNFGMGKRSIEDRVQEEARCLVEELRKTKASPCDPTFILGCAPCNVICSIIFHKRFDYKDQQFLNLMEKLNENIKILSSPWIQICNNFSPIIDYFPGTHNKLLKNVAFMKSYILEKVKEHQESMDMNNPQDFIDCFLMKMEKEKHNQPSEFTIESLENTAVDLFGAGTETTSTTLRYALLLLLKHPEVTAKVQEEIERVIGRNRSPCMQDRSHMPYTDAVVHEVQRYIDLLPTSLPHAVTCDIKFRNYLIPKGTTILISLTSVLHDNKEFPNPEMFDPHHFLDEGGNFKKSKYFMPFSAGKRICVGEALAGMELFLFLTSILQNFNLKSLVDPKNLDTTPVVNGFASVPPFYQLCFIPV
Method: as §1, §2

CYP2D6 = molecular target: T4, CYP2D6 (Homo sapiens, UniProt P10635); test: In vitro CYP450 inhibition assay (Vivid); format: biochemical; conditions: probe fluorogenic Vivid CYP450 substrate (not named)
T4 construct: assay run by Bienta (Enamine Biology Services)
T4 sequence (P10635 whole entry): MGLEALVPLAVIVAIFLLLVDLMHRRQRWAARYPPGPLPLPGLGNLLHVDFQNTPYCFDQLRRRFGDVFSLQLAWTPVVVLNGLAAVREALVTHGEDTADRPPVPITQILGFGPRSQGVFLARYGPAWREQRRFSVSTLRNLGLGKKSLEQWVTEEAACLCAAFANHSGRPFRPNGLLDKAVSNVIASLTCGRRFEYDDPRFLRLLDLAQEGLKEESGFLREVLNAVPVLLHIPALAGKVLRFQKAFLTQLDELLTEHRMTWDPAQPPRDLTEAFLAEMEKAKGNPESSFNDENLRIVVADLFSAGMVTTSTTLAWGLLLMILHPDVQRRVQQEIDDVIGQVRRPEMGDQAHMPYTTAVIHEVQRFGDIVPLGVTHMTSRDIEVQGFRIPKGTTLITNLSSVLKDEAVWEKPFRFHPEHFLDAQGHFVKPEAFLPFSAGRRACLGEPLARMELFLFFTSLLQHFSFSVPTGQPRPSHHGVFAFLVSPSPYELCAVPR
Method: as §1, §2

CYP3A4 = molecular target: T5, CYP3A4 (Homo sapiens, UniProt P08684); test: In vitro CYP450 inhibition assay (Vivid); format: biochemical; conditions: probe fluorogenic Vivid CYP450 substrate (not named)
T5 construct: assay run by Bienta (Enamine Biology Services)
T5 sequence (P08684 2-503 limits assumed): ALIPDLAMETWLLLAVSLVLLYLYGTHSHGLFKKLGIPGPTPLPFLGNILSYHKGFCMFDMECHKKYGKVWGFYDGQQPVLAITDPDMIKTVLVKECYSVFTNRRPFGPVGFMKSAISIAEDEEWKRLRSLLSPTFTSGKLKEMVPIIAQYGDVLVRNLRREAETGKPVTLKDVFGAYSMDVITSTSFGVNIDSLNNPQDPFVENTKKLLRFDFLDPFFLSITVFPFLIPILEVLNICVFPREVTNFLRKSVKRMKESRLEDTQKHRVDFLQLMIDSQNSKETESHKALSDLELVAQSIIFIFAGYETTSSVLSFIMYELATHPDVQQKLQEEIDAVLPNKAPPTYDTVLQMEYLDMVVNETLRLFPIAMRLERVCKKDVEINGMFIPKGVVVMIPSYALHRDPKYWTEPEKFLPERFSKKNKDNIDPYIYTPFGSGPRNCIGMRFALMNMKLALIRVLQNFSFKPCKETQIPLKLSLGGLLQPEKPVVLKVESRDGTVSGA
Method: as §1, §2

hERG potassium channel = hERG potassium channel (Homo sapiens, UniProt Q12809); test: hERG inhibition assay (thallium flux, HEK293-hERG cells); format: cell-based; conditions: for inhibition of hERG: at 100 μM
hERG potassium channel, sequence (Q12809 whole entry): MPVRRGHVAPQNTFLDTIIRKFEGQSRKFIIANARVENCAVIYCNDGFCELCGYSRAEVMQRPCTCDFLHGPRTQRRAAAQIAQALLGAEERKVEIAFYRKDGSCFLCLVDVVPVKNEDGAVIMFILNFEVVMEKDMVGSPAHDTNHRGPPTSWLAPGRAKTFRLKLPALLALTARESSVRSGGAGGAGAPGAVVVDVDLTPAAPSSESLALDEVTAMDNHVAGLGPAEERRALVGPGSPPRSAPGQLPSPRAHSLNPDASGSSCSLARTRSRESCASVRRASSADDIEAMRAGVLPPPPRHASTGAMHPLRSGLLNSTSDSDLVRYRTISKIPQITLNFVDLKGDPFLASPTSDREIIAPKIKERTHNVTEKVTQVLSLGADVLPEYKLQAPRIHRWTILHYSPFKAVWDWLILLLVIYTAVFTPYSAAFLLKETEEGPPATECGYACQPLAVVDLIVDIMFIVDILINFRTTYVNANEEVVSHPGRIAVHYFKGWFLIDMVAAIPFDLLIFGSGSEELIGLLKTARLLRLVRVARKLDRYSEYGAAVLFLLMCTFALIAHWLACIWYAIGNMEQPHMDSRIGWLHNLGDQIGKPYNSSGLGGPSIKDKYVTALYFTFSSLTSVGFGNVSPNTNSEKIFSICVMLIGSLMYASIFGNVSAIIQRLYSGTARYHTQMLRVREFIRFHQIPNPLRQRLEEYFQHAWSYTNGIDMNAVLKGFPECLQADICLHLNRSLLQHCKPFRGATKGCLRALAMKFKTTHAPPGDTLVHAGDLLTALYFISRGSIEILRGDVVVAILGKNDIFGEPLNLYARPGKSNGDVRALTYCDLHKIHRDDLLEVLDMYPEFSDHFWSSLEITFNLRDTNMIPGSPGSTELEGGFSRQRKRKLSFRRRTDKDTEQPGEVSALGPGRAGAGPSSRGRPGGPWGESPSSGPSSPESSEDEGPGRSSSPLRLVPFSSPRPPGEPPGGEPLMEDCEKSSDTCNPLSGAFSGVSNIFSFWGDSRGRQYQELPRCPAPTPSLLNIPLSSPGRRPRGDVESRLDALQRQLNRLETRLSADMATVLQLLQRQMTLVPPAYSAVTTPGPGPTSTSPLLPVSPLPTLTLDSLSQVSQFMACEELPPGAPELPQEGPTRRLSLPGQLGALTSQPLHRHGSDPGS
Method: The study was performed by Bienta (Enamine Biology Services). HEK293-hERG cells (stably expressing human potassium channel hERG – human Ether-a-go-go Related Gene) were cultured in DMEM/F-12 medium supplemented with 10% FBS, 100 U/mL penicillin, 100 μg/mL streptomycin, and 500 μg/mL G418. The assay was performed according to the manufacturer’s instructions. Cells were seeded into a 384-well poly-D-lysine, clear-bottom microtiter plate (8000 cells/well) in DMEM/F-12 medium supplemented with 5% FBS, 100 U/mL penicillin, 100 μg/mL streptomycin 24 h prior to assay. After 24 h of cell growth, the conditioned medium was substituted with the Dye Loading Solution comprising thallium-sensitive dye, followed by incubation for 1 h in a CO2 incubator. After the incubation, the Dye Loading Solution was substituted with a 15 μL/well mixture of the Assay Buffer and the TRS. Then, 5 μL of the test compound diluted in the assay buffer (0.5% DMSO final concentration) was added to each well of the plate and incubated at room temperature for 30 min hERG inhibition by test compounds was assessed at 3 concentrations of 10–50–100 μM. All test points were performed in quadruplicates. […] DMSO was used as a negative control, and Haloperidol was used as a reference compound to verify the assay validity. Haloperidol was dissolved in 100% DMSO at a concentration of 20 mM and stored at – 20 °C (for no more than a month). Haloperidol was assessed at the final concentrations ranging from 0.023 μM to 50.0 μM (8 points, 3-fold serial dilutions). The test compounds were dissolved in 100% DMSO at a concentration of 20 mM.

[3] = tested on: panel of CYP isoforms (1A2, 2C9, 2C19, 2D6, and 3A4); test: CYP450 inhibition, panel statement; format: biochemical, human; conditions: up to 50 μM
Method: as §1, §2

[4] = male, CD-1, mouse, iv, intravenous
[5] = mouse, male CD-1 mice, intravenous, single dose, read-out: Cl (obs), observed clearance
[6] = Tables 2 and 4, mouse plasma, read-out: fup, fraction unbound in mouse plasma
[7] = mouse plasma protein binding, read-out: PPB (m) (converted)
[8] = male, CD-1, mouse, intravenous, in vivo PK in mice, unit inferred, read-out: clearance

## O=P(O)(O)CP(=O)(O)OC[C@H]1O[C@@H](n2ccc3c(-c4ccc(F)c5ccccc45)nc(Cl)nc32)[C@H](O)[C@@H]1O [7B.28]
[1]; [4]
  half-life: 1.8 h
[1]
  unbound plasma exposure relative to mouse CD73 Ki: well above
[1]; [5]
  clearance: 1.7 mL/min/kg
[2]; [6]
  fraction unbound at 4 h, 100 µM: 0.23
[2]; [7]
  fraction unbound at 4 h, 100 µM: 0.232
CYP1A2
  inhibition at 25 min, 10 µM: 9%
CYP2C19
  inhibition at 60 min, 10 µM: 22%
CYP2C9
  inhibition at 25 min, 10 µM: 24%
CYP2D6
  inhibition at 25 min, 10 µM: -6%
CYP3A4
  inhibition at 25 min, 10 µM: 9%
hERG potassium channel
  hERG % inhibition at 100 µM: 6%
  inhibition of hERG: no inhibition
[3]
  inhibition of a panel of CYP isoforms: no inhibition

## O=P(O)(O)CP(=O)(O)OC[C@H]1O[C@@H](n2ccc3c(-c4ccc5ccccc5c4)ncnc32)[C@H](O)[C@@H]1O [4A.7]
[1]; [4]
  half-life: 4.2 h
[1]; male, CD-1, mouse, iv, in vivo PK in mice, unit inferred, read-out: clearance
  clearance: 4.1 mL/min/kg
[2]; [7]
  fraction unbound at 4 h, 100 µM: 0.315
CYP1A2
  inhibition at 25 min, 10 µM: 7%
CYP2C19
  inhibition at 60 min, 10 µM: 10%
CYP2C9
  inhibition at 25 min, 10 µM: 23%
CYP2D6
  inhibition at 25 min, 10 µM: -17%
CYP3A4
  inhibition at 25 min, 10 µM: -7%
hERG potassium channel
  hERG % inhibition at 100 µM: 1%
  inhibition of hERG: no inhibition
[3]
  inhibition of a panel of CYP isoforms: no inhibition

## O=P(O)(O)CP(=O)(O)OC[C@H]1O[C@@H](n2ccc3c(-c4cccc5ccncc45)ncnc32)[C@H](O)[C@@H]1O [4A.18]
[2]; [7]
  fraction unbound at 4 h, 100 µM: 0.727
CYP1A2
  inhibition at 25 min, 10 µM: 7%
CYP2C19
  inhibition at 60 min, 10 µM: 3%
CYP2C9
  inhibition at 25 min, 10 µM: 11%
CYP2D6
  inhibition at 25 min, 10 µM: -10%
CYP3A4
  inhibition at 25 min, 10 µM: -3%
hERG potassium channel
  hERG % inhibition at 100 µM: 6%
  inhibition of hERG: no inhibition
[3]
  inhibition of a panel of CYP isoforms: no inhibition

## O=P(O)(O)CP(=O)(O)OC[C@H]1O[C@@H](n2ccc3c(-c4ccc5c(c4)CCCC5)nc(Cl)nc32)[C@H](O)[C@@H]1O [7B.23]
[1]; [4]
  half-life: 2.23 h
[1]; [5]
  clearance: 3 mL/min/kg
[2]; [6]
  fraction unbound at 4 h, 100 µM: 0.06
[2]; [7]
  fraction unbound at 4 h, 100 µM: 0.059
CYP1A2
  inhibition at 25 min, 10 µM: -17%
CYP2C19
  inhibition at 60 min, 10 µM: 3%
CYP2C9
  inhibition at 25 min, 10 µM: 21%
CYP2D6
  inhibition at 25 min, 10 µM: 6%
CYP3A4
  inhibition at 25 min, 10 µM: -23%
hERG potassium channel
  hERG % inhibition at 100 µM: 5%
  inhibition of hERG: no inhibition
[3]
  inhibition of a panel of CYP isoforms: no inhibition

## Cc1nc(-c2ccc3ccccc3c2)c2ccn([C@@H]3O[C@H](COP(=O)(O)CP(=O)(O)O)[C@@H](O)[C@H]3O)c2n1 [18E.7]
[1]; [4]
  half-life: 1.73 h
[1]; [5]
  clearance: 4.6 mL/min/kg
[2]; [6]
  fraction unbound at 4 h, 100 µM: 0.22
[2]; [7]
  fraction unbound at 4 h, 100 µM: 0.221

## Cc1nc(-c2cccc3ccccc23)c2ccn([C@@H]3O[C@H](COP(=O)(O)CP(=O)(O)O)[C@@H](O)[C@H]3O)c2n1 [18E.6]
[1]; [8]
  clearance: 0.32 mL/min/kg
[1]; [4]
  half-life: 5.27 h
[1]
  unbound plasma exposure relative to mouse CD73 Ki: well above
[1]; [5]
  clearance: 0.32 mL/min/kg
[2]; [6]
  fraction unbound at 4 h, 100 µM: 0.51
[2]; [7]
  fraction unbound at 4 h, 100 µM: 0.515
CYP1A2
  inhibition at 25 min, 10 µM: 8%
CYP2C19
  inhibition at 60 min, 10 µM: -20%
CYP2C9
  inhibition at 25 min, 10 µM: 12%
CYP2D6
  inhibition at 25 min, 10 µM: -18%
CYP3A4
  inhibition at 25 min, 10 µM: 0%
hERG potassium channel
  hERG % inhibition at 100 µM: 2%
  inhibition of hERG: no inhibition
[3]
  inhibition of a panel of CYP isoforms: no inhibition

## O=P(O)(O)CP(=O)(O)OC[C@H]1O[C@@H](n2ccc3c(-c4cccc5c4CCCC5)nc(Cl)nc32)[C@H](O)[C@@H]1O [7B.12]
[1]; [4]
  half-life: 2.33 h
[1]; [5]
  clearance: 0.88 mL/min/kg
[2]; [6]
  fraction unbound at 4 h, 100 µM: 0.22
[2]; [7]
  fraction unbound at 4 h, 100 µM: 0.216
CYP1A2
  inhibition at 25 min, 10 µM: 0%
CYP2C19
  inhibition at 60 min, 10 µM: 10%
CYP2C9
  inhibition at 25 min, 10 µM: 15%
CYP2D6
  inhibition at 25 min, 10 µM: -13%
CYP3A4
  inhibition at 25 min, 10 µM: -8%
hERG potassium channel
  hERG % inhibition at 100 µM: 3%
  inhibition of hERG: no inhibition
[3]
  inhibition of a panel of CYP isoforms: no inhibition

## O=P(O)(O)CP(=O)(O)OC[C@H]1O[C@@H](n2ccc3c(-c4ccc5c(c4)CCCC5)nc(I)nc32)[C@H](O)[C@@H]1O [27H.23, [(5-{[2-Iodo-4-(5,6,7,8-tetrahydronaphthalen-2-yl)-7H-pyrrolo[2,3-d]pyrimidin-7-yl]-β-D-ribofuranosyl}oxy)phosphonomethyl]phosphonic Acid]
[1]; [8]
  clearance: 3.1 mL/min/kg
[1]; [4]
  half-life: 3.08 h
[1]; [5]
  clearance: 3.1 mL/min/kg
[2]; [7]
  fraction unbound at 4 h, 100 µM: 0.036
CYP1A2
  inhibition at 25 min, 10 µM: -4%
CYP2C19
  inhibition at 60 min, 10 µM: -7%
CYP2C9
  inhibition at 25 min, 10 µM: 11%
CYP2D6
  inhibition at 25 min, 10 µM: -12%
CYP3A4
  inhibition at 25 min, 10 µM: -23%
hERG potassium channel
  hERG % inhibition at 100 µM: 7%
  inhibition of hERG: no inhibition
[3]
  inhibition of a panel of CYP isoforms: no inhibition
